# From patent US11247970B2, “Selective inhibition of gluconeogenic activity” (Dana-Farber Cancer Institute, Inc., priority 2017, dated 2022)
# Tests used:
# [1] = tested on: primary hepatocytes; assay: Glucose production by primary hepatocytes (glucagon or Ad-PGC-1α); type: cell-based, mouse; settings: for glucose release to culture medium compared to control: hepatocytes ectopically expressing PGC-1α, overnight treatment, pyruvate/lactate
# Method: (§1) For measurement of acetylation, gene expression and glucose production SR-18292 ([…]) was added to cells overnight and fresh compound was added the following day for additional 3 h before collecting the cells (for total of ˜18 h treatment). Where insulin and glucagon stimulation were performed, the medium was changed to starvation medium (DMEM, 0.2% BSA, 2 mM sodium pyruvate, and 1% penicillin/streptomycin) with fresh compound for the last 3 h and cells were stimulated with either 100 nM insulin or 200 nM glucagon for an extra 1.5 h. For glucose measurements following PGC-1α over expression cells were incubated for the last 3 h in glucose-free medium (phenol-red/glucose free DMEM, 0.2% BSA, 2 mM sodium pyruvate and 20 mM sodium lactate or 10 mM glycerol in case glycerol was used as substrate). For glucose measurements following glucagon stimulation cells were incubated for the last 4 h in the same glucose-free medium that also contained glucagon (200 nM). The glucose level in the medium was measured using a glucose assay kit from Eton Bioscience Inc. by adding […] of assay buffer to […] of medium followed by 15 min incubation at 37° C. Absorbance was measured at 490 nm.
# PGC-1α activates hepatic gluconeogenic gene expression, and an increase in its acetylation status reduces expression of both Pck1 and G6pc genes (Rodgers et al., 2005; Yoon et al., 2001). […] Thus, a high-throughput screen with these 252 compounds at different doses was performed. Briefly, Hepatocytes were treated with forskolin for 1.5 hours to induce the expression of both Pck1 and G6pc genes, which mimics the fasting and PGC-1α-mediated gluconeogenic response. The dose response curves were used to calculate an inhibitory activity of the compounds by determining the difference in Ct values between compound treatment and forskolin control at each dose, and provided an estimated potency of the compounds in suppressing Pck1 and G6pc (FIGS. 4, 34). […] To specifically test the inhibitory activity of the remaining small molecule positive hits on PGC-1α-mediated glucose production, adenoviruses to ectopically express PGC-1α in primary hepatocytes were used. Similar to forskolin, PGC-1α overexpression induces gluconeogenic gene expression and promotes glucose release. Primary hepatocytes were treated with the chosen positive hit compounds that could suppress gluconeogenic gene expression, and the concentration of glucose released to the culture medium was measured.
# [2] = Preliminary pharmacokinetics, liver concentration; type: in vivo; settings: ip, 2 h after single dose 30 mg/kg I.P., read-out: compound concentration in the liver
# [3] = biological target: T1, PGC-1α (Mus musculus, UniProt O70343); assay: AlphaLisa PGC-1α acetylation screen in U-2 OS cells over expressing PGC-1α and GCN5; type: cell-based; set-up: expressed in transfected cells; host or cells: U-2 OS cells infected with Ad-PGC-1α and Ad-GCN5
# T1 sequence (O70343 1-797): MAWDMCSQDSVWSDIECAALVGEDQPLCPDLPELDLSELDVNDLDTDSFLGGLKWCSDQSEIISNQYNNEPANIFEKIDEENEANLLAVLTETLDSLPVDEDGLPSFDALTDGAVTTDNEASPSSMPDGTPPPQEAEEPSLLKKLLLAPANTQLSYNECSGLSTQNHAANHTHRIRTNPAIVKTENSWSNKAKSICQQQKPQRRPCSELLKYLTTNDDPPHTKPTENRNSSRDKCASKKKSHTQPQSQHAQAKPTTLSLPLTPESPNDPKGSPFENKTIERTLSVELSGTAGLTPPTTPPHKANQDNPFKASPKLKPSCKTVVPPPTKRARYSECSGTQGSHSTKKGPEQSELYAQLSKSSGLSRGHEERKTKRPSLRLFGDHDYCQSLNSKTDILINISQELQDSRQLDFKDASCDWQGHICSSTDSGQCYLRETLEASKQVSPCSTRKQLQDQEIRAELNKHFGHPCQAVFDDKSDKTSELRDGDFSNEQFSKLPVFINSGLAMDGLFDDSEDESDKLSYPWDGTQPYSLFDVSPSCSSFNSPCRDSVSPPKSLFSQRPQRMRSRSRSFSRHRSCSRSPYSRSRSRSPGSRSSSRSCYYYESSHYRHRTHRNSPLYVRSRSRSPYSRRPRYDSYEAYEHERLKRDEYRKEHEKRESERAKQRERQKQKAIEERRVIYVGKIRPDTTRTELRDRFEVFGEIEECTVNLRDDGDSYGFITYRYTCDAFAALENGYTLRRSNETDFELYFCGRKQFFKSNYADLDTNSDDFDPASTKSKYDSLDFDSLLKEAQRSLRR
# Method: U-2 OS cells were thawed and grown in 4 Triple flasks (NUNC) with growth medium. After 48 hours, cells were harvested and seeded in 4 Hyper flasks at a density of 15-20 million cell each. Cells were then grown for 4-5 days until reached confluency. After reaching the desired confluency, medium was changed to assay medium and cells were infected with Ad-PGC-1α and Ad-GCN5 for 4 hours. Following infection, medium was changed to phenol-free medium and cells were incubated overnight. The following day, cells were harvested and seeded on a 384-well plate at 7000 cells/well in […] assay media. Cells were allowed to adhere for 4-8 hours after which 100 nl of compound was added. After overnight incubation with compound, media was aspirated and cells were incubated with lysis buffer for 1 hour at RT. […] Perkin Elmer EnVision plate reader was used for signal detection using Alpha protocol. For each compound, activity score was calculated based on the mean of the normalized and corrected sample activity replicates. […] For each sample the highest valid tested concentration was determined and set as Maximum concentration. […] AC values were calculated using the curve fitting strategies in Genedata Screener Condoseo (7.0.3) and up to the active concentration limit (Maximum concentration) described for each sample. […]
# [4] = Solubility (data not shown); type: physicochemical
# [5] = Bioavailability (data not shown)
# [6] = tested on: Pck1 and G6pc gene expression; assay: Gluconeogenic gene and protein expression in primary hepatocytes (qPCR, western); type: cell-based, mouse; set-up: effect on glucagon or PGC-1α-increased Pck1 and G6pc expression, relative to SR-18292: dose or concentration left out as unconfirmed; settings: 18 h, glucagon or Ad-PGC-1α
# Method: as §1
# siRNA oligos against mouse Ppargc1a were purchased from OriGene (SR420231). Hepatocytes were transfected with a 1:1:1:mixture of 3 unique 27mer siRNA duplexes ([…]) using Lipofectamin RNAiMax (Invitrogen) immediately upon seeding with plating medium. The following morning cells were washed with PBS and medium was changed to maintenance medium. In the afternoon, cells were transfected again and compound treatment started.
# Total RNA was extracted from cells or pulverized liver using TRIzol reagent (Ambion, Life Technologies), followed by cDNA preparation from 2 μg of total RNA with a High-Capacity cDNA Reverse Transcription Kit (Applied Biosystems). cDNA products were quantified by real-time PCR using Power SYBR Green PCR Master Mix (Applied Biosystems) on a CFX384 Real-Time PCR System (Bio-Rad). To calculate IC50 from C-80 dose response, curves were fit to the hill equation in a similar manner used to calculate estimated AC50 from the high-throughput qPCR screen. However, unlike the curves from the qPCR high-throughput screen, values of relative repression were used rather than of delta-Ct.
# [7] = biological target: T1, PGC-1α; assay: Western blot of PGC-1α acetylation in U-2 OS cells (analog comparison); type: cell-based; set-up: expressed in transfected cells; host or cells: U-2 OS cells infected with Ad-PGC-1α and Ad-GCN5; dose or concentration left out as unconfirmed; settings: Ad-PGC-1α and Ad-GCN5, 18 h
# Method: U-2 OS cells were infected with Ad-PGC-1α and Ad-GCN5 and treated with the indicated compound for 18 h. PGC-1α was immunoprecipitated using FLAG beads.
# For PGC-1α acetylation detection in hepatocytes cells were infected with Ad-PGC-1α and Ad-GCN5. Cells were collected in RIPA buffer (containing protease inhibitor cocktail, 5 mM NaF, 5 mM β-glycerophosphate, 10 mM nicotinamide, 1 mM DTT and 1 μM trichostatin A). FLAG-HA-PGC-1α was immunoprecipitated overnight at 4° C. with FLAG beads (Sigma A2220). For GCN5 interaction with PGC-1α, U-2 OS cells were infected with Ad-PGC-1α. Nuclear extracts were obtained by lysing cell in Buffer A (10 mM HEPES-KOH (pH 7.9), 10 mM KCl, 1.5 mM MgCl2, 0.5 mM DTT, 0.25% IGEPAL (v/v), 5 mM NaF, 5 mM β-glycerophosphate, 5 mM sodium butyrate and 10 mM nicotinamide), supplemented with Protease Inhibitor Cocktail. Once cytoplasmic fractions were separated, nuclear pellets were lysed in Buffer B (20 mM HEPES-KOH (pH 7.9), 125 mM NaCl, 1 mM EDTA, 1 mM DTT, 1% IGEPAL (v/v), 10% glycerol (v/v), 5 mM NaF, 5 mM β-glycerophosphate, 5 mM sodium butyrate and 10 mM nicotinamide), supplemented with Protease Inhibitor Cocktail. FLAG-HA-PGC-1α was immunoprecipitated with FLAG beads overnight at 4° C. All beads were washed at last 3 times in lysis buffer before eluting in sample loading buffer.
compound,measurement,setting,value
"CN(C)C(=N)N=C(N)N [metformin, reference compound]",concentration able to suppress glucose production,[1]; hepatocytes,100 to 250 µM
Cc1ccc(CN(CC(O)COc2cccc3[nH]cc(C)c23)C(C)(C)C)cc1 (stereo not drawn) [Compound C-80],concentration at 2 h,[2],2300 nM
same,glucose release to culture medium compared to control,[1],next most potent small molecule
same,potency in a confirmatory screen,[3],highest potency
Cc1nc(N2CCN(S(=O)(=O)c3ccc(F)cc3)CC2)c2c(-c3cccs3)csc2n1 [Compound C-82],glucose release to culture medium compared to control,[1],top small molecule hit suppressing glucose production
same,solubility,[4],poor
same,bioavailability,[5],poor
Cc1ccc(CN(CC(O)COc2ccccc2)C(C)(C)C)cc1 (stereo not drawn) [SR-19138],"effect on glucagon or PGC-1α-increased Pck1 and G6pc expression, relative to SR-18292",[6],reduced the inhibitory effect
same,ability to induce acetylation of PGC-1α compared to SR-18292,[7],reduced ability to induce acetylation of PGC-1α
